The target in one data set is T1, hTLR9 (Homo sapiens, UniProt Q9NR96).
T1 sequence (Q9NR96 26-1032): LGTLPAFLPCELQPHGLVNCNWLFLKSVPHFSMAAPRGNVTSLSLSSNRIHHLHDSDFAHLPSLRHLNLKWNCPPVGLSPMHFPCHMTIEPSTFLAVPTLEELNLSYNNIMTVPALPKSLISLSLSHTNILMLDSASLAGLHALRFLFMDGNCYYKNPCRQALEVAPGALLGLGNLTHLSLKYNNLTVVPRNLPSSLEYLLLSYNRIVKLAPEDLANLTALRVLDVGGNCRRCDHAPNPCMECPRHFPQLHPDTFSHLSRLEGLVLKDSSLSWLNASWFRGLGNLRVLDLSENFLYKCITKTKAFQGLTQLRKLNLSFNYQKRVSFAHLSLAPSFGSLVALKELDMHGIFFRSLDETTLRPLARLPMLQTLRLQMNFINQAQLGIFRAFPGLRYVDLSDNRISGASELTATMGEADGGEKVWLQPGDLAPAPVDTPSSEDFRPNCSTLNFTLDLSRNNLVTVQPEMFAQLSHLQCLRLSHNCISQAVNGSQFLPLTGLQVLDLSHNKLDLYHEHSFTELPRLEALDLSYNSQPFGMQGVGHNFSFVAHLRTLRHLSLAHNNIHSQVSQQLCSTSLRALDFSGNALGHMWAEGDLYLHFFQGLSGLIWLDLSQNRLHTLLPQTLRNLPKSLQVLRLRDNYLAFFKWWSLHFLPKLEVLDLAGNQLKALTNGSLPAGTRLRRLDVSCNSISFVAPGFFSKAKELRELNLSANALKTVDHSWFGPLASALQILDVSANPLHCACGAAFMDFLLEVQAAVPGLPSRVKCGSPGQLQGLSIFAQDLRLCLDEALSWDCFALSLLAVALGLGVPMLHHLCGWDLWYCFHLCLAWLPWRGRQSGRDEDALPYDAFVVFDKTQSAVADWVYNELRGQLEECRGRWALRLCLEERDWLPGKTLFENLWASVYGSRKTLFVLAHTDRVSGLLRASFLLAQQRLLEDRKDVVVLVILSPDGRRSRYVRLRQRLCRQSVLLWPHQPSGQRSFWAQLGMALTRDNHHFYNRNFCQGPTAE
Set-up: host or cells: HEK. Particulars: data disclosed in US20150105370; read-out: HEK/hTLR9 IC50; cited from earlier work.

A further data set addresses T2, hTLR7 (Homo sapiens, UniProt Q9NYK1).
T2 sequence (Q9NYK1 27-1049): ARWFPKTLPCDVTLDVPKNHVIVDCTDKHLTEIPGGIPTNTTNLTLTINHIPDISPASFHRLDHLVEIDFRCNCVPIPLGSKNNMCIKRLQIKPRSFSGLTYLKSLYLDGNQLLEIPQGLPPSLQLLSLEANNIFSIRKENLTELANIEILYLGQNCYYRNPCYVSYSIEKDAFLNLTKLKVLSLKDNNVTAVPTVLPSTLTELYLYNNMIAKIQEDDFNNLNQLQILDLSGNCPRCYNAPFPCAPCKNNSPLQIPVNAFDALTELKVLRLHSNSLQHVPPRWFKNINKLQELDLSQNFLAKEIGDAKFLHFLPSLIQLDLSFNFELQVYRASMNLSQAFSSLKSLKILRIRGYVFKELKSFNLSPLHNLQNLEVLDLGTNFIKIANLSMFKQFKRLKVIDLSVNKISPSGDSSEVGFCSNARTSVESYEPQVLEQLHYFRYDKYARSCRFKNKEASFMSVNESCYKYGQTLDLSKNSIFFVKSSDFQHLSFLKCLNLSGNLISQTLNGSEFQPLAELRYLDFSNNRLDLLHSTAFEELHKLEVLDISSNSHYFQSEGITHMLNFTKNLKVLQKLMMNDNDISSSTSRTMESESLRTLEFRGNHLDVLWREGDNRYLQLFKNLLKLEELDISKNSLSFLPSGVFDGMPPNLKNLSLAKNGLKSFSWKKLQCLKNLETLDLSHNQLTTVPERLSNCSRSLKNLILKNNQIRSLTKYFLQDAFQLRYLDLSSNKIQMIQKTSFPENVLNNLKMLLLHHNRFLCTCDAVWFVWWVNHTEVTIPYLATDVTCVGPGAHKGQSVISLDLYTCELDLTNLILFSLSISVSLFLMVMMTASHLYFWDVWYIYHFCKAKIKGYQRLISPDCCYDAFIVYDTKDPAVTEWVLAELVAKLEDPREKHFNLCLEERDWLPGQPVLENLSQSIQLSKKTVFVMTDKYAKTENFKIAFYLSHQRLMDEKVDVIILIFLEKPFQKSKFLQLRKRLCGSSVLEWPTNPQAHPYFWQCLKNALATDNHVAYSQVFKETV
The arrangement: host or cells: HEK. Particulars: data disclosed in US20150105370; read-out: HEK/hTLR7 IC50; cited from earlier work.

Data set [1] in a line: Human microsome stability assay. The class given is in vitro ADME. Particulars: human liver microsomes, 1 µM test compound, 0.5 mg/mL protein, 37°C, up to 30 minutes. How it is done: Human microsome stability assay
The human microsomal stability assay is used for early assessment of metabolic stability of a test compound in human liver microsomes.
Human liver microsomes (Cat.NO.: 452117, Corning, USA;Cat.NO.:H2610, Xenotech, USA) were preincubated with test compound for 10 minutes at 37°C in 100 mM potassium phosphate buffer, pH 7.4. The reactions were initiated by adding NADPH regenerating system. The final incubation mixtures contained 1 µM test compound, 0.5 mg/mL liver microsomal protein, 1 mM MgCl2, 1 mM NADP, 1 unit/mL isocitric dehydrogenase and 6 mM isocitric acid in 100 mM potassium phosphate buffer, pH 7.4. After incubation times of 0, 3, 6, 9, 15 and 30 minutes at 37°C, 300 µL of cold acetonitrile (including internal standard) was added to 100 µL incubation mixture to terminate the reaction. Following precipitation and centrifugation, the amount of compound remaining in the samples were determined by LC-MS/MS. Controls of no NADPH regenerating system at zero and 30 minutes were also prepared and analyzed. […] Table 3. Human liver microsome stability of the compounds of present invention
Background: Liver microsomes are a subcellular fraction often used to study metabolism.

Take `C[C@@H]1CN(c2ccc(C#N)c3ncccc23)C[C@H](CNc2ccccc2)O1` [ER-886601]: the IC50 on hTLR9 is > 2 µM; on hTLR7 it was 0.015 µM.

For the compound `Cc1cccc(NC[C@H]2CN(c3ccc(C#N)c4ncccc34)C[C@@H](C)O2)c1` [ER-886602], the IC50 was > 20 µM at hTLR9 and 0.185 µM at hTLR7. Regarding `Cc1nc2cc(NC[C@H]3CN(c4ccc(C#N)c5ncccc45)C[C@@H](C)O3)ccc2n1C` [ER-886608], the IC50 on hTLR9 is 3.37 µM; at hTLR7 it was 0.013 µM. On to `Cc1cccc(NC[C@H]2CN(c3ccc(C#N)c4ncccc34)C[C@@H](C)O2)n1` [ER-886799], for which the IC50 at hTLR9 was > 2 µM; at hTLR7, 0.007 µM. For `C[C@@H]1CN(c2ccc(C#N)c3nccnc23)C[C@H](CN2Cc3ccc(N4CC5CCC(C4)N5)cc3C2)O1` [Example 44, 8-[(2S,6R)-2-[[5-(3,8-diazabicyclo[3.2.1]octan-3-yl)isoindolin-2-yl]methyl]-6-methyl-morpholin-4-yl]quinoxaline-5-carbonitrile], in data set [1], the “Clearance of Human microsome” value is given as 6.94 mL/min/kg. Turning to `C[C@@H]1CN(c2ccc(C#N)c3ncccc23)C[C@H](CN2Cc3ccc(N4CCNCC4C(=O)O)cc3C2)O1` (stereo partly drawn) [Example 56, 1-[2-[[(2S,6R)-4-(8-cyano-5-quinolyl)-6-methyl-morpholin-2-yl]methyl]isoindolin-5-yl]piperazine-2-carboxylic acid], in data set [1], the “Clearance of Human microsome” value is on record as 6.51 mL/min/kg.
